According to US20070072954A1, “Novel tetraoxaspiroalkanes and methods of use with organosilicon monomers in polyerizable compositions” (Curators of the University of Missouri, priority 2005, published 2007):
Marks after values point to notes of the source that are not given here.

Test: Mechanical properties measurement (3-point bend tests)
Format: physicochemical
Description: In this example, the elastic modulus, ultimate strength, and work of fracture were determined for the monomers of the present invention. […] The resin was injected into the mold and cured by irradiation (500 mW/cm^2) followed by storage in the dark for 4 hours and 24 hours before mechanical tests were conducted. Three point bending tests were conducted using an electromagnetic mechanical testing machine (Enduratec Model 3200) with a 20-mm span and at a crosshead displacement rate of 0.5mm/ min at room temperature (25° C.). Load-displacement data were collected at 100 Hz. […] Flexural ultimate strength was determined from the peak loads and work of fracture was determined from the area under the stress-strain curve.

[1] = 4-hour Post Cure, 10 mol % TOSU in SIL-MIX
[2] = 4-hour Post Cure, 25 mol % TOSU in SIL-MIX
[3] = 24-hour Post Cure, 10 mol % TOSU in SIL-MIX
[4] = 24-hour Post Cure, 25 mol % TOSU in SIL-MIX

## CCC1(COCCC[Si](C)(C)C)COC2(OC1)OCC(CC)(COCCC[Si](C)(C)C)CO2 (stereo not shown) [Monomer 6, 3,9-diethyl-3,9-bis(3-trimethylsilylpropyloxymethyl)-1,5,7,11-tetraoxaspiro[5.5]undecane]
4-h Post Cure, 10 mol % TOSU in SIL-MIX
  Flexural elastic modulus: 1.61 (0.17)^a GPa
4-h Post Cure, 25 mol % TOSU in SIL-MIX
  Flexural elastic modulus: 1.33 (0.18)^a GPa
[1]
  Flexural strength: 58.77 (19.08)^a,b MPa
  Work of Fracture: 2.67 (1.25)^a kJ/m^2
[2]
  Flexural strength: 30.90 (11.36)^a MPa
  Work of Fracture: 0.73 (0.38)^a kJ/m^2
10 mol % TOSU
  24-hour modulus values as % of those for SIL-MIX alone: 77%
  24-hour strength values as % of those for SIL-MIX alone: 84%
  24-hour work of fracture values as % of those for SIL-MIX alone: 100%
10 mol % TOSU, listed as TOSU
  24-hour strength values as % of those for SIL-MIX alone: 85%
24-h Post Cure, 10 mol % TOSU in SIL-MIX
  Flexural elastic modulus: 2.41 (0.24)^b GPa
24-h Post Cure, 25 mol % TOSU in SIL-MIX
  Flexural elastic modulus: 1.87 (0.06)^a GPa
[3]
  Flexural strength: 76.90 (10.19)^a,b MPa
  Work of Fracture: 3.07 (0.81)^a,b kJ/m^2
[4]
  Flexural strength: 56.63 (11.11)^a MPa
  Work of Fracture: 1.80 (0.87)^a kJ/m^2
25 mol % TOSU
  24-hour modulus values as % of those for SIL-MIX alone: 60%
  24-hour strength values as % of those for SIL-MIX alone: 60%
  24-hour work of fracture values as % of those for SIL-MIX alone: 66%
